How the values were obtained:
[1] = test system: JAK/STAT pathway (JAK1/JAK2-dependent nuclear translocation of STAT1-GFP); experiment: Inhibition of the JAK/STAT pathway: IFN-γ stimulated nuclear translocation of STAT1-GFP in HT1080 fibrosarcoma cells; format: cell-based; conditions: Homo sapiens, HT-1080; HT1080 STAT1-GFP cells, 100 ng/ml IFN-γ 2 hours, compound added 30 min before; read-out: STAT1translo IC50
Text: The medium-throughput (96-well format), robust and reproducible cellular assay can be routinely used to assess the functional activation of Janus Kinases (JAKs), based on the nuclear translocation of their substrate, Signal Transducer and Activator of Transcription (STAT). Nuclear translocation can be monitored in HT1080 fibrosarcoma cells stably transfected with STAT1 fused to Green Fluorescence Protein (GFP). Stimulation with interferon-γ (IFN-γ) results in JAK1/JAK2-dependent nuclear translocation of STAT1-GFP that can be quantified using the Cellomics Cyto/NucTrans software package. This assay may be used to provide an assessment of the nuclear-cytoplasmic differential (NCD) of GFP-STAT1 using Hoechst dye to define the boundaries of the nucleus.
Compounds can be dissolved in DMSO to a final stock concentration of 10 mM and stored as aliquots at 4° C. Compounds may be pre-diluted in 100% DMSO at 10 mM, 3 mM 1 mM, 0.3 mM, 0.1 mM, 0.03 mM, 0.01 mM and 0.003 mM. Subsequently, compounds may be diluted in medium and added in 50 μl to the cells. The final compound concentrations tested may be 10 μM, 3 μM 1 μM, 0.3 μM, 0.1 μM, 0.03 μM, 0.01 μM and 0.003 μM and the final DMSO concentration can be 0.1%.
The plates may then be washed once in PBS, and 200 μl PBS finally added per well. The plates, being finally covered with a black adhesive, may be either read directly or stored at 4° C. for later imaging. Where appropriate, the compounds may be added 30 min before stimulation with IFN-γ.
The plates can be read on a Cellomics® ArrayscanII automated fluorescence microscope plate reader equipped with a Mercury-Xenon white light illumination source and a Zeiss Axiovert inverted microscope, using the XF100 dichroic/emission filter cube and matching excitation filters, 10× magnification, and a 0.3 numerical aperture objective. Image acquisition and analysis can be performed using a customized protocol based on the ‘NuclearTranslocation’ Bioapplication (for details, see Appendices). For each well, multiple images (fields) can be acquired until a minimum of 1000 cells are counted using two 2 channels: Channel 1 (Hoechst)=focus+nuclear mask, Channel 2 (GFP)=signal quantification in mask areas as outlined below.
Nuclei may be first identified based on the Hoechst staining and a mask generated for each nucleus that then serves as a template to generate a circle (eroded inwards by 1 pixel) and a 3 pixel-wide collar-like ring (off-set outwards by 1 pixel), in which the nuclear and cytoplasmic intensity of GFP, respectively, are quantified in the corresponding channel. High content analysis yields numerous measurements per cell and the GPF intensity differential between the nuclear and the cytoplasmic masks may be chosen as a measure of sub-cellular GFP-STAT1 relocation. The resulting values may be averaged for all cells in the well to return a single measurement plus standard deviation.

GST-JAK3(811-1124) = target: T1, GST-JAK3(811-1124) (Homo sapiens, UniProt P52333); experiment: EPK JAK-family kinases profiling assay (Caliper mobility shift), JAK3; format: biochemical; conditions: ATP 80 μM, 6 nM kinase
T1 construct: GST-JAK3(811-1124); made in house
Text: (§1) All four kinases of the JAK-family kinases were used as purified recombinant GST-fusion proteins, containing the active kinase domains. GST-JAK1(866-1154), GST-JAK3(811-1124), and GST-TYK2(888-1187) were expressed and purified by affinity chromatography at the EPK biology unit. GST-JAK2(808-1132) was purchased from Invitrogen (Carlsbad, USA, #4288).
(§2) The kinase assays were based on the Caliper mobility shift assay using the LabChip 3000 systems. This technology is similar to capillary electrophoresis and uses charge driven separation of substrate and product in a microfluidic chip.
(§3) All kinase reactions were performed in 384 well microtiter plates in a total reaction volume of 18 μl. The assay plates were prepared with 0.1 μl per well of test compound in the appropriate test concentration, as described under the section “preparation of compound dilutions”. The reactions were started by combining 9 μl of substrate mix (consisting of peptide and ATP) with 9 μl of kinase dilution. The reactions were incubated for 60 minutes at 30° C. and stopped by adding 70 μl of stop buffer (100 mM Hepes, 5% DMSO, 0.1% Coating reagent, 10 mM EDTA, 0.015% Brij 35).
(§4) Fluorescently labeled synthetic peptides were used as substrates in all reactions. […] Specific assay conditions are described in Table 1:
(§5) The terminated reactions were transferred to the Caliper LabChip 3000 reader and the turnover of each reaction was measured by determining the substrate/product ratio.
(§6) Test compounds were dissolved in DMSO (10 mM) and transferred into 1.4 mL flat bottom or V-shaped Matrix tubes carrying a unique 2D matrix chip by individual compound hubs. The numbers of these chips were distinctively linked to the individual compound identification numbers. The stock solutions were stored at −20° C. if not used immediately. For the test procedure the vials were defrosted and identified by a scanner whereby a working sheet was generated that guided the subsequent working steps.
(§7) Compound dilutions were made in 96 well plates. This format enabled the assay of maximally 40 individual test compounds at 8 concentrations (single points) including 4 reference compounds. The dilution protocol included the production of pre-dilution plates, master plates and assay plates:
(§8) Pre-dilution plates: 96 polypropylene well plates were used as pre-dilution plates. A total of 4 pre-dilution plates were prepared including 10 test compounds each on the plate positions A1-A10, one standard compound at A11 and one DMSO control at A12. All dilution steps were done on a HamiltonSTAR robot.
(§9) Master plates: 100 μL of individual compound dilutions including standard compound and controls of the 4 “pre-dilution plates” were transferred into a 384 “master plate” including the following concentrations 1′820, 564, 182, 54.6, 18.2, 5.46, 1.82 and 0.546 μM, respectively in 90% of DMSO.
(§10) Assay plates: Identical assay plates were then prepared by pipetting 100 nL each of compound dilutions of the master plates into 384-well “assay plates”. […] The preparation of the master plates were handled by the Matrix PlateMate Plus robot and replication of assay plates by the HummingBird robot.

GST-JAK1(866-1154) = target: T2, GST-JAK1(866-1154) (Homo sapiens, UniProt P23458); experiment: EPK JAK-family kinases profiling assay (Caliper mobility shift), JAK1; format: biochemical; conditions: ATP 40 μM, 50 nM kinase
T2 construct: GST-JAK1(866-1154); made in house
Text: as §1, §2, §3, §4, §5, §6, §7, §8, §9, §10

GST-JAK2(808-1132) = target: T3, GST-JAK2(808-1132) (Homo sapiens, UniProt O60674); experiment: EPK JAK-family kinases profiling assay (Caliper mobility shift), JAK2; format: biochemical; conditions: ATP 20 μM, 1.8 nM kinase
T3 construct: GST-JAK2(808-1132); purchased Invitrogen (Carlsbad, USA) #4288
Text: as §1, §2, §3, §4, §5, §6, §7, §8, §9, §10

T2 sequence (P23458 866-1154): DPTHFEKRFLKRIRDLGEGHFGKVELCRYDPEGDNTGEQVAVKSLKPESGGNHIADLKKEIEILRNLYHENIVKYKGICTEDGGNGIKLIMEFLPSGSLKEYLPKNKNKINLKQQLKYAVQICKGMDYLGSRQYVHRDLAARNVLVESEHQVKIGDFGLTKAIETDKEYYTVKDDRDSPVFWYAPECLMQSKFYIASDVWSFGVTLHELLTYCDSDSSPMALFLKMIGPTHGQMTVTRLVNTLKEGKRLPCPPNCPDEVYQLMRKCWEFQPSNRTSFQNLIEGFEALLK
T3 sequence (O60674 808-1132): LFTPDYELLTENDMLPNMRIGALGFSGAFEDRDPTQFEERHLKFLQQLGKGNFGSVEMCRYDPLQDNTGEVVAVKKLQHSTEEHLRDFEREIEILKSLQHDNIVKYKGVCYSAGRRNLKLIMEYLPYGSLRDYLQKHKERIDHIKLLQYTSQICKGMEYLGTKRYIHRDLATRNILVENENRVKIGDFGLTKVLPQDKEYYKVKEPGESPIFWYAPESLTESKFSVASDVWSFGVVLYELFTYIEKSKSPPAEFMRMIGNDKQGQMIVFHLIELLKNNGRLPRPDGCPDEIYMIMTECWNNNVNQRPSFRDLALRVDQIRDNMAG
T1 sequence (P52333 811-1124): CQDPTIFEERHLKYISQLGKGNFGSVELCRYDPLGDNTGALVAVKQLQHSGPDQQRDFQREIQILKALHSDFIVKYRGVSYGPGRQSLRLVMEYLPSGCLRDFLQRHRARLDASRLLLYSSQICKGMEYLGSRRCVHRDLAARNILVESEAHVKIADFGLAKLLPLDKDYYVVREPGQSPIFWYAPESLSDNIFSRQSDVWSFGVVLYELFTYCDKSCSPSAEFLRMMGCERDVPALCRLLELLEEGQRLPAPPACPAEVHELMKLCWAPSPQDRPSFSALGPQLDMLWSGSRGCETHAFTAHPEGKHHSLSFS

Structure (SMILES)	IC50 [1]	IC50 (GST-JAK3(811-1124))	IC50 (GST-JAK1(866-1154))	IC50 (GST-JAK2(808-1132))
Cc1cc(-c2cnc3cccc(-c4ccc(CN5CCS(=O)(=O)CC5)cc4)c3n2)ccc1C(=O)N1CCN(C)CC1 [Example 40, (4-{8-[4-(1,1-Dioxido-thiomorpholin-4-ylmethyl)-phenyl]-quinoxalin-2-yl}-2-methyl-phenyl)-(4-methyl-piperazin-1-yl)-methanone]	0.16 µM	0.627 µM	0.0784 µM	0.0073 µM
Cc1cc(-c2cnc3cccc(-c4ccc(CC(=O)N5CCOCC5)cc4)c3n2)ccc1C(=O)N1CCN(C)CC1 [Example 41, 2-(4-{3-[3-Methyl-4-(4-methyl-piperazine-1-carbonyl)-phenyl]-quinoxalin-5-yl}-phenyl)-1-morpholin-4-yl-ethanone]	0.346 µM	0.64 µM	0.13 µM	0.0063 µM
O=C(Cc1ccc(-c2cccc3ncc(-c4ccc(N5CCOCC5)cc4)nc23)cc1)N1CCOCC1 [Example 45, 1-Morpholin-4-yl-2-{4-[3-(4-morpholin-4-yl-phenyl)-quinoxalin-5-yl]-phenyl}-ethanone]	2.4 µM	2.2 µM	0.19 µM	0.03 µM
Cc1cc(-c2cccc3ncc(-c4ccc(N5CCOCC5)cc4)nc23)ccc1C(=O)N1CCOCC1 [Example 46, {2-Methyl-4-[3-(4-morpholin-4-yl-phenyl)-quinoxalin-5-yl]-phenyl}-morpholin-4-yl-methanone]	2.82 µM	1.6 µM	0.11 µM	0.02 µM
COCCOc1ccc(-c2cnc3cccc(-c4ccc(CN5CCS(=O)(=O)CC5)c(F)c4)c3n2)cc1OC [Example 48, 8-[4-(1,1-Dioxido-thiomorpholin-4-ylmethyl)-3-fluoro-phenyl]-2-[3-methoxy-4-(2-methoxy-ethoxy)-phenyl]-quinoxaline]	0.15 µM	0.077 µM	0.0099 µM	< 0.003 µM
COCCOc1ccc(-c2cnc3cccc(-c4ccc(CC(=O)N5CCOCC5)c(F)c4)c3n2)cc1OC [Example 49, 2-(2-Fluoro-4-{3-[3-methoxy-4-(2-methoxy-ethoxy)-phenyl]-quinoxalin-5-yl}-phenyl)-1-morpholin-4-yl-ethanone]	1.23 µM	4.4 µM	0.26 µM	0.038 µM
Cc1cc(-c2cnc3cccc(-c4ccc(CN5CCS(=O)(=O)CC5)c(F)c4)c3n2)ccc1C(=O)N(C)C [Example 54, 4-{8-[4-(1,1-Dioxido-thiomorpholin-4-ylmethyl)-3-fluoro-phenyl]-quinoxalin-2-yl}-2,N,N-trimethyl-benzamide]	0.14 µM	0.065 µM	0.017 µM	< 0.003 µM
Cc1cc(-c2cnc3cccc(-c4ccc(CN5CCOCC5)c(C(F)(F)F)c4)c3n2)ccc1C(=O)N(C)C [Example 55, 2,N,N-Trimethyl-4-[8-(4-morpholin-4-ylmethyl-3-trifluoromethyl-phenyl)-quinoxalin-2-yl]-benzamide]	3.14 µM	4.2 µM	1.7 µM	0.09 µM
Cc1cc(-c2cnc3cccc(-c4ccc(CN5CCOCC5)c(F)c4)c3n2)ccc1C(=O)N(C)C [Example 56, 4-[8-(3-Fluoro-4-morpholin-4-ylmethyl-phenyl)-quinoxalin-2-yl]-2,N,N-trimethyl-benzamide]	0.471 µM	0.57 µM	0.15 µM	0.012 µM
Cc1cc(-c2cccc3ncc(-c4ccc(C(=O)N5CCOCC5)c(C)c4)nc23)ccc1CN1CCS(=O)(=O)CC1 [Example 57, (4-{8-[4-(1,1-Dioxido-thiomorpholin-4-ylmethyl)-3-methyl-phenyl]-quinoxalin-2-yl}-2-methyl-phenyl)-morpholin-4-yl-methanone]	0.163 µM	0.17 µM	0.08 µM	< 0.003 µM
Cc1cc(-c2cnc3cccc(-c4ccc(CN5CCOCC5)c(F)c4)c3n2)ccc1C(=O)N1CCOCC1 [Example 58, {4-[8-(3-Fluoro-4-morpholin-4-ylmethyl-phenyl)-quinoxalin-2-yl]-2-methyl-phenyl}-morpholin-4-yl-methanone]	0.221 µM	0.32 µM	0.09 µM	0.011 µM
Cc1cc(-c2cnc3cccc(-c4cc(F)c(CN5CCOCC5)c(F)c4)c3n2)ccc1C(=O)N1CCOCC1 [Example 59, {4-[8-(3,5-Difluoro-4-morpholin-4-ylmethyl-phenyl)-quinoxalin-2-yl]-2-methyl-phenyl}-morpholin-4-yl-methanone]	0.635 µM	1.95 µM	0.52 µM	0.02 µM
Cc1cc(-c2cnc3cccc(-c4ccc(CN5CCS(=O)(=O)CC5)c(Cl)c4)c3n2)ccc1C(=O)N1CCOCC1 [Example 61, (4-{8-[3-Chloro-4-(1,1-dioxido-thiomorpholin-4-ylmethyl)-phenyl]-quinoxalin-2-yl}-2-methyl-phenyl)-morpholin-4-yl-methanone]	0.235 µM	1.4 µM	0.165 µM	0.015 µM
Cc1cc(-c2cnc3cccc(-c4ccc(CN5CCS(=O)(=O)CC5)c(F)c4)c3n2)ccc1C(=O)N1CCOCC1 [Example 62, (4-{8-[4-(1,1-Dioxido-thiomorpholin-4-ylmethyl)-3-fluoro-phenyl]-quinoxalin-2-yl}-2-methyl-phenyl)-morpholin-4-yl-methanone]	0.082 µM	0.33 µM	0.0445 µM	0.0057 µM
Cc1cc(-c2cnc3cccc(-c4ccc(CN5CCOCC5)c(F)c4)c3n2)ccc1C(=O)N1CCCC1 [Example 65, {4-[8-(3-Fluoro-4-morpholin-4-ylmethyl-phenyl)-quinoxalin-2-yl]-2-methyl-phenyl}-pyrrolidin-1-yl-methanone]	2.19 µM	0.86 µM	0.24 µM	0.0155 µM

Source: patent publication US8193189B2, “Quinoxaline derivatives as tyrosine kinase activity inhibitors” (Novartis AG, priority 2007, dated 2012)
